pEC50, pIC50: −log10 of the molar value.

Results on 26 compounds are retold here after ChEMBL document CHEMBL5046266, “Synthesis and Evaluation of Structurally Diverse C-2-Substituted Thienopyrimidine-Based Inhibitors of the Human Geranylgeranyl Pyrophosphate Synthase” (J Med Chem, 2022).

The test system of one data set is RPMI-8226. Description: cells. Particulars: Homo sapiens, RPMI-8226, 72 h.
Data set [1] deals with T1, Geranylgeranyl pyrophosphate synthase (Homo sapiens, UniProt O95749).
T1 sequence (O95749 whole entry): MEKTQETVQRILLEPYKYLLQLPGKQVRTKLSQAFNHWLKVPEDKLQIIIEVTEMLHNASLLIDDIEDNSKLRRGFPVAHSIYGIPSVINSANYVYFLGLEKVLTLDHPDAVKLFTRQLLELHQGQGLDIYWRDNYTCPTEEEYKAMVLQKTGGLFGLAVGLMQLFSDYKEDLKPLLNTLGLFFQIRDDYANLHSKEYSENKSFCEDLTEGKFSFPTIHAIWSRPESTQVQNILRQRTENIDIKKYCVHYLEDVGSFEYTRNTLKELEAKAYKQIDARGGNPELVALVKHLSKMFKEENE

In data set [2] the target is T2, Farnesyl pyrophosphate synthase (Homo sapiens) (UniProt P14324).
T2 sequence (whole entry): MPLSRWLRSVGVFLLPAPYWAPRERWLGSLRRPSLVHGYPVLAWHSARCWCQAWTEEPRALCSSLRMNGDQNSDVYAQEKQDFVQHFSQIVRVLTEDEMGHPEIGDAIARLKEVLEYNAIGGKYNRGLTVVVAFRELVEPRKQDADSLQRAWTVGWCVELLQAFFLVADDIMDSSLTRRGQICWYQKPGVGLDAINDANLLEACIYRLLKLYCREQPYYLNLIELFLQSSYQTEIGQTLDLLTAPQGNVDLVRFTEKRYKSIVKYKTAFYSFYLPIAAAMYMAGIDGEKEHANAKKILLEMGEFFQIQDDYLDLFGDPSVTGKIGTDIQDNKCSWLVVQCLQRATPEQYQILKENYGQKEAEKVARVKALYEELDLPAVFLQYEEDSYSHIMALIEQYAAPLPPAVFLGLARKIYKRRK
In words: Inhibition of human FPPS expressed in Escherichia coli BL21 (DE3) at 1 uM preincubated for 10 mins in presence compound relative to control.

Data set [3] deals with T3, Farnesyl pyrophosphate synthase (Homo sapiens, UniProt P14324).
T3 sequence (P14324 whole entry): T2 sequence (whole entry)

The next data set is described as follows: in vitro. Particulars: human, bone marrow mononuclear cells.

Turning to `CC(C)O[C@H](C(=O)Nc1cccc(-c2nc(NC(P(=O)(O)O)P(=O)(O)O)c3ccsc3n2)c1)c1ccccc1`, in the data set on RPMI-8226, the negative logarithm of the EC50 (pEC50) was 6.87. Further, in data set [1], the pIC50 is 7.68. In data set [2], this compound registered an inhibition of 35%.

`COc1ccc(NS(=O)(=O)c2cccc(-c3nc(NC(P(=O)(O)O)P(=O)(O)O)c4ccsc4n3)c2)cc1F` had a negative logarithm of the EC50 (pEC50) with RPMI-8226 of 5.30. For the same compound, the pIC50 in data set [1] was 7.64. This compound also yielded an inhibition in data set [2] of 25%.

`O=C(Nc1cccc(-c2nc(NC(P(=O)(O)O)P(=O)(O)O)c3ccsc3n2)c1)c1ccc(F)cc1` gave a pIC50 in data set [1] of 7.60. In data set [2], this compound came in with an inhibition of 30%.

For the compound `COc1ccc([C@@H](OC(C)C)C(=O)Nc2cccc(-c3nc(NC(P(=O)(O)O)P(=O)(O)O)c4ccsc4n3)c2)cc1F`, in the data set with RPMI-8226, the pEC50 is under 5.30. In addition, the pIC50 in data set [1] was 7.70; in data set [3], 6.14.

For `O=C(Nc1cccc(-c2nc(NC(P(=O)(O)O)P(=O)(O)O)c3ccsc3n2)c1)c1ccc(C(F)(F)F)cc1`, the pEC50 in the data set on RPMI-8226 was 6.15. This compound gave a pIC50 in data set [1] of 7.74. The compound also showed an inhibition in data set [2] of 40%.

With `COc1ccc(NC(=O)Nc2cccc(-c3nc(NC(P(=O)(O)O)P(=O)(O)O)c4ccsc4n3)c2)cc1F`, in the data set with RPMI-8226, the pEC50 was 5.89. The same compound showed a pIC50 in data set [1] of 7.47.

In turn, `O=C(Nc1cccc(-c2nc(NC(P(=O)(O)O)P(=O)(O)O)c3ccsc3n2)c1)c1ccc(C(F)(F)F)cn1` gave a pEC50 in the data set on RPMI-8226 of 4.67. In data set [1], this compound gave a pIC50 of 7.28. The same compound came in with an inhibition in data set [2] of 60%.

Take `Cc1ccc(S(=O)(=O)Nc2cccc(-c3nc(NC(P(=O)(O)O)P(=O)(O)O)c4ccsc4n3)c2)cc1F`: the pEC50 with RPMI-8226 was 5.11. In data set [1], this compound had a pIC50 of 7.64. In addition, in data set [2], the inhibition worked out at 30%.

In the case of `O=C(Cc1ccccc1)Nc1cccc(-c2nc(NC(P(=O)(O)O)P(=O)(O)O)c3ccsc3n2)c1`, the negative logarithm of the EC50 (pEC50) in the data set on RPMI-8226 is 6.13. Besides, the pIC50 in data set [1] was 7.64. This compound gave an inhibition in data set [2] of 55%.

For the compound `CC(C)C[C@H](NC(=O)[C@H](Cc1ccccc1)NC(=O)c1cnccn1)B(O)O` [BORTEZOMIB], the viability at 72 h, 0.05 µM in “in vitro” was 40.1%.

Regarding `CO[C@@H](C(=O)Nc1cccc(-c2nc(NC(P(=O)(O)O)P(=O)(O)O)c3ccsc3n2)c1)c1ccccc1`, in the data set with RPMI-8226, the pEC50 was 6.04. In data set [1], the pIC50 was 7.41. The inhibition in data set [2] was 48%.

`O=P(O)(O)C(Nc1nc(-c2ccccc2)nc2sccc12)P(=O)(O)O`: the pEC50 in the data set on RPMI-8226 is under 5.00. The pIC50 in data set [1] is 7.43.

`CC(C)O[C@@H](C(=O)Nc1cccc(-c2nc(NC(P(=O)(O)O)P(=O)(O)O)c3ccsc3n2)c1)c1ccccc1` gave a pEC50 in the data set on RPMI-8226 of 6.04. In data set [1], this compound had a pIC50 of 7.64.

In the data set on RPMI-8226, `Cc1ccc(C(=O)Nc2cccc(-c3nc(NC(P(=O)(O)O)P(=O)(O)O)c4ccsc4n3)c2)cc1F` gave a pEC50 of 6.54. In data set [1], this compound had a pIC50 of 7.68. In addition, the inhibition in data set [2] stood at 35%.

In the data set on RPMI-8226, `O=C(Nc1ccc(F)cc1)Nc1cccc(-c2nc(NC(P(=O)(O)O)P(=O)(O)O)c3ccsc3n2)c1` had a pEC50 of 5.39. Also, the pIC50 in data set [1] is 7.39. For the same compound, in data set [2], the inhibition is 90%.

With `O=C(Nc1cccc(-c2nc(NC(P(=O)(O)O)P(=O)(O)O)c3ccsc3n2)c1)c1ccccc1`, the pEC50 in the data set on RPMI-8226 was under 6.30. Also, the pIC50 in data set [1] was 7.72. In data set [2], this compound had an inhibition of 40%.

Turning to `CC(C)C[C@H](NC(=O)[C@H](CCc1ccccc1)NC(=O)CN1CCOCC1)C(=O)N[C@@H](Cc1ccccc1)C(=O)N[C@@H](CC(C)C)C(=O)[C@@]1(C)CO1` [CARFILZOMIB], the viability at 72 h, 0.05 µM in “in vitro” turned out to be 43.6%.

In turn, `CO[C@H](C(=O)Nc1cccc(-c2nc(NC(P(=O)(O)O)P(=O)(O)O)c3ccsc3n2)c1)c1ccccc1` had a pEC50 in the data set with RPMI-8226 of 6.41. The pIC50 in data set [1] was 7.42. Besides, the inhibition in data set [2] is 55%.

For the compound `O=C(Nc1ccccc1)c1cccc(-c2nc(NC(P(=O)(O)O)P(=O)(O)O)c3ccsc3n2)c1`, the pIC50 in data set [1] was 7.39.

In the data set with RPMI-8226, `O=C(Cc1cccnc1)Nc1cccc(-c2nc(NC(P(=O)(O)O)P(=O)(O)O)c3ccsc3n2)c1` showed a pEC50 of 5.92. In data set [1], this compound gave a pIC50 of 7.15. The inhibition in data set [2] is 60%.

In the case of `COc1ccc(C(=O)Nc2cccc(-c3nc(NC(P(=O)(O)O)P(=O)(O)O)c4ccsc4n3)c2)cc1F`, the negative logarithm of the EC50 (pEC50) with RPMI-8226 is 6.34. The pIC50 in data set [1] is 7.54. The inhibition in data set [2] is 60%.

For `Cc1ccc(NC(=O)c2cccc(-c3nc(NC(P(=O)(O)O)P(=O)(O)O)c4ccsc4n3)c2)cc1F`, in the data set on RPMI-8226, the pEC50 was 6.89. The pIC50 in data set [1] was 7.51. Also, in data set [2], the inhibition stood at 28%.

As for `COc1ccc([C@H](OC(C)C)C(=O)Nc2cccc(-c3nc(NC(P(=O)(O)O)P(=O)(O)O)c4ccsc4n3)c2)cc1F`, the pEC50 in the data set on RPMI-8226 was 6.06. Further, the pIC50 in data set [1] is 7.77; in data set [3] it was 6.34.

Regarding `COc1ccc(C(=O)Nc2cccc(-c3nc(NC(P(=O)(O)O)P(=O)(O)O)c4ccsc4n3)c2)cc1Br`, the negative-log EC50 (pEC50) with RPMI-8226 is under 6.30. For the same compound, the pIC50 in data set [1] was 7.44. In addition, the inhibition in data set [2] amounted to 40%.

In turn, `COc1ccc(S(=O)(=O)Nc2cccc(-c3nc(NC(P(=O)(O)O)P(=O)(O)O)c4ccsc4n3)c2)cc1F` gave a negative-log EC50 (pEC50) in the data set on RPMI-8226 of 5.33. This compound also had a pIC50 in data set [1] of 7.62. Moreover, in data set [2], the inhibition worked out at 40%.

In the data set on RPMI-8226, `Cc1ccc(NC(=O)c2cccc(-c3nc(NC(P(=O)(O)O)P(=O)(O)O)c4ccsc4n3)c2)cc1Br` showed a negative-log EC50 (pEC50) of 6.79. This compound also gave a pIC50 in data set [1] of 7.82. The inhibition in data set [2] stood at 12%.

By pEC50 is commonly meant the negative decadic logarithm of the EC50, by convention in mol/L. Read a high pEC50 as a low EC50. By pIC50 is commonly meant −log10 of the IC50, conventionally taken in molar units. Lower therefore signals a large IC50. What is called inhibition is the change of the read-out against control, counted positive when it falls. The term viability denotes a per cent measure of how many cells are alive, often set against a control. Read a low viability as more harm to the cells.
